Tests used:
sST-2 = experiment: Serum sST-2 measured by EIA kit (PRESAGE sST-2 assay) in heart failure subjects treated 48 hours with serelaxin or placebo; type: in vivo, human
Method: Samples were collected from subjects enrolled in a multi-center, randomized, double-blind, placebo-controlled clinical trial, which was conducted to determine the safety and efficacy of serelaxin (recombinant human serelaxin) in subjects with heart failure, as described in Teerlink et al. (supra).
Serum was collected from 218 subjects (supra) for whom a baseline level of sST-2 as well as a post-serelaxin treatment level of sST-2 was determined. sST-2 was found at a lower limit of quantitation of 3.1 ng/ml and an upper limit of quantitation of 200 ng/ml. sST-2 was measured via the EIA kit (see Example 7 for more detail) and exact clinical measurements are summarized in Table 1 (see attached Table 1).
The difference between the placebo group and each of the serelaxin dose groups was statistically significant at 48 hours.
At baseline, geometric means across treatment groups ranged from 47 ng/ml to 60 ng/ml, i.e., 55 percent of the treated subjects had sST-2 concentrations that exceeded the normal range of 33.5 ng/ml in females and 49.3 ng/ml in males. […] This established that serelaxin transiently upregulates sST-2.
FIG. 3 depicts a between-treatment analysis of sST-2 by visit, comparing a change from baseline in sST-2 geometric means between the serelaxin groups compared to the placebo group at 3 time points. […] The differences subsided so that by Day 5, changes from baseline in 3 of the 4 serelaxin groups, as well as the pooled serelaxin group, were no different than change from baseline in the placebo group. By Day 14, the changes from baseline in all of the serelaxin groups were not different from change in the placebo group. As above, this establishes that serelaxin transiently up-regulates sST-2.
sST-2 levels were measured with the EIA Test Kit & PRESAGE sST-2 Assay (from Critical Diagnostics, NY) according to the manufacturer's instructions. Alternatively, other assays could be used such as the QUANTIKINE ST2/IL-1 R4 Immunoassay (from R&D Systems, Inc., MN).
The EIA test kit is a quantitative sandwich monoclonal ELISA in a 96 well plate format for measurement of sST-2 in serum or plasma. Diluted serum from 218 subjects was loaded into the appropriate wells in the anti-ST-2 antibody coated plate and incubated for the prescribed time. Following a series of steps, where reagents were washed from the plate, and additional reagents were added and subsequently washed out, the analyte sST-2 was detected by addition of a colorimetric reagent. The resulting signal was measured spectroscopically at 450 nm. The assay was conducted according to the parameters described in the assay description of the EIA test kit with all prescribed reagents and materials.

[1] = wide range of doses; up to six months of continuous treatment; cited from earlier work

For serelaxin, the “change from baseline in sST-2 concentrations at 48 hours” value (sST-2; 48 hours of treatment, all serelaxin dose groups, placebo decreased 30%, p<0.05 for all serelaxin groups vs. placebo) was “increase from baseline”, the “change from baseline in sST-2 geometric means vs. placebo group at 48 hours” value (sST-2; 48 hours, all serelaxin groups and pooled serelaxin group, between-treatment analysis (FIG. 3)) was “significantly different” and the “change from baseline in sST-2 geometric means vs. placebo group at Day 5” value (sST-2; Day 5, 3 of the 4 serelaxin groups and pooled serelaxin group) was “no different”. For the same substance, the “change from baseline in sST-2 geometric means vs. placebo group at Day 14” value (sST-2; Day 14, all serelaxin groups) was “not different” and the “safety in nonclinical toxicology studies” value [1] was “safe”.

Source: patent publication US20170014409A1, “TREATING INFLAMMATION USING SERELAXIN” (priority 2012, published 2017)
